# Source: ChEMBL document CHEMBL5055685, “Discovery of the First Potent IDO1/IDO2 Dual Inhibitors: A Promising Strategy for Cancer Immunotherapy” (J Med Chem, 2021)
# The source made the active and inactive calls. The rule behind the calls is not given here.
# How the values were obtained:
# [1] = molecular target: Tyrosine-protein kinase Fer (Homo sapiens) (UniProt P16591); experiment: Inhibition of FER (unknown origin) at 1 uM
# [2] = molecular target: Ephrin type-A receptor 7 (Homo sapiens) (UniProt Q15375); experiment: Inhibition of EPHA7 (unknown origin) at 1 uM
# [3] = molecular target: Aurora kinase A (Homo sapiens) (UniProt O14965); experiment: Inhibition of Aurora A (unknown origin) at 1 uM
# Sequence of Aurora kinase A (Homo sapiens) (O14965 whole entry): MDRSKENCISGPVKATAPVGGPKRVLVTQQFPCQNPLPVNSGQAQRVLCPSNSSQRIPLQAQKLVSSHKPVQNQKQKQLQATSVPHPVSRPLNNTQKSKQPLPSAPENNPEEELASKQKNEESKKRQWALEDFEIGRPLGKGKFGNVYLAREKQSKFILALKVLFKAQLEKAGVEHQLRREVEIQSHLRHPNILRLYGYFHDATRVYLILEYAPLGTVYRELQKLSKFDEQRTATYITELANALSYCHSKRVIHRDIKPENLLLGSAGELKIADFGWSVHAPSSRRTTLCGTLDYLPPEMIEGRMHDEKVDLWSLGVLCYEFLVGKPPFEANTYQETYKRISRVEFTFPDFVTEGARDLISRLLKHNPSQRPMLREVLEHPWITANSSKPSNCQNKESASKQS
# [4] = molecular target: TGF-beta receptor type-2 (Homo sapiens) (UniProt P37173); experiment: Inhibition of TGFBR2 (unknown origin) at 1 uM
# [5] = molecular target: Protein kinase C theta type (Homo sapiens) (UniProt Q04759); experiment: Inhibition of PKCtheta (unknown origin) at 1 uM
# [6] = molecular target: SRSF protein kinase 2 (Homo sapiens) (UniProt P78362); experiment: Inhibition of SRPK2 (unknown origin) at 1 uM
# [7] = molecular target: Ribosomal protein S6 kinase beta-1 (Homo sapiens) (UniProt P23443); experiment: Inhibition of p70S6K (unknown origin) at 1 uM
# [8] = molecular target: Mitogen-activated protein kinase kinase kinase 5 (Homo sapiens) (UniProt Q99683); experiment: Inhibition of ASK1 (unknown origin) at 1 uM
# [9] = molecular target: LIM domain kinase 2 (Homo sapiens) (UniProt P53671); experiment: Inhibition of LIMK2 (unknown origin) at 1 uM
# [10] = molecular target: Protein kinase C alpha type (Homo sapiens) (UniProt P17252); experiment: Inhibition of PKCalpha (unknown origin)at 1 uM
# [11] = molecular target: Muscle, skeletal receptor tyrosine-protein kinase (Homo sapiens) (UniProt O15146); experiment: Inhibition of MUSK (unknown origin) at 1 uM
# [12] = molecular target: Serine/threonine-protein kinase Nek4 (Homo sapiens) (UniProt P51957); experiment: Inhibition of NEK4 (unknown origin) at 1 uM
# Sequence of Serine/threonine-protein kinase Nek4 (Homo sapiens) (P51957 whole entry, looked up): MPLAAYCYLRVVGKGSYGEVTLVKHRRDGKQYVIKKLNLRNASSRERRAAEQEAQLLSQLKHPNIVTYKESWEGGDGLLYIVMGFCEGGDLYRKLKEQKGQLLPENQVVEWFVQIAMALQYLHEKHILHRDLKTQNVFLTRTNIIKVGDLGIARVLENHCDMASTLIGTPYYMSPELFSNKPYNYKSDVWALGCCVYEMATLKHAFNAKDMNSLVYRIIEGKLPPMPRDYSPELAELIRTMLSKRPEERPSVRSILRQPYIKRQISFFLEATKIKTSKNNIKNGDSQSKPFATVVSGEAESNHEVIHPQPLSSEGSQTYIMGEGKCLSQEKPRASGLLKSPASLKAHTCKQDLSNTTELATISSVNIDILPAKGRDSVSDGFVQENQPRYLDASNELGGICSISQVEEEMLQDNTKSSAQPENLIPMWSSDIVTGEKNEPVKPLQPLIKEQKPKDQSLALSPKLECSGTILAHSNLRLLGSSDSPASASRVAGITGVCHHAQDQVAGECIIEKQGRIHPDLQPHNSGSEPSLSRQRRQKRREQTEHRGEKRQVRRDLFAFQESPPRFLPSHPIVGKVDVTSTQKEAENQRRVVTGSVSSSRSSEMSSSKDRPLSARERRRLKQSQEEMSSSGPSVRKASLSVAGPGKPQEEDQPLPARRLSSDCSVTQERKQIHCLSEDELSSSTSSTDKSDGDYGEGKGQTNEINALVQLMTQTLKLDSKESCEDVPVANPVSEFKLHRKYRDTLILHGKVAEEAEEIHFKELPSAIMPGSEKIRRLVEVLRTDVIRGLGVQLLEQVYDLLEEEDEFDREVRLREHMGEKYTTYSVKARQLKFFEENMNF
# [13] = Metabolic stability in rat liver microsomes assessed as rate constant; format: ADME, Microsome
# [14] = molecular target: Serine/threonine-protein kinase PAK 1 (Homo sapiens) (UniProt Q13153); experiment: Inhibition of PAK1 (unknown origin) at 1 uM
# [15] = molecular target: Serine/threonine-protein kinase N3 (Homo sapiens) (UniProt Q6P5Z2); experiment: Inhibition of PKN3 (unknown origin) at 1 uM
# Sequence of Serine/threonine-protein kinase N3 (Homo sapiens) (Q6P5Z2 whole entry, looked up): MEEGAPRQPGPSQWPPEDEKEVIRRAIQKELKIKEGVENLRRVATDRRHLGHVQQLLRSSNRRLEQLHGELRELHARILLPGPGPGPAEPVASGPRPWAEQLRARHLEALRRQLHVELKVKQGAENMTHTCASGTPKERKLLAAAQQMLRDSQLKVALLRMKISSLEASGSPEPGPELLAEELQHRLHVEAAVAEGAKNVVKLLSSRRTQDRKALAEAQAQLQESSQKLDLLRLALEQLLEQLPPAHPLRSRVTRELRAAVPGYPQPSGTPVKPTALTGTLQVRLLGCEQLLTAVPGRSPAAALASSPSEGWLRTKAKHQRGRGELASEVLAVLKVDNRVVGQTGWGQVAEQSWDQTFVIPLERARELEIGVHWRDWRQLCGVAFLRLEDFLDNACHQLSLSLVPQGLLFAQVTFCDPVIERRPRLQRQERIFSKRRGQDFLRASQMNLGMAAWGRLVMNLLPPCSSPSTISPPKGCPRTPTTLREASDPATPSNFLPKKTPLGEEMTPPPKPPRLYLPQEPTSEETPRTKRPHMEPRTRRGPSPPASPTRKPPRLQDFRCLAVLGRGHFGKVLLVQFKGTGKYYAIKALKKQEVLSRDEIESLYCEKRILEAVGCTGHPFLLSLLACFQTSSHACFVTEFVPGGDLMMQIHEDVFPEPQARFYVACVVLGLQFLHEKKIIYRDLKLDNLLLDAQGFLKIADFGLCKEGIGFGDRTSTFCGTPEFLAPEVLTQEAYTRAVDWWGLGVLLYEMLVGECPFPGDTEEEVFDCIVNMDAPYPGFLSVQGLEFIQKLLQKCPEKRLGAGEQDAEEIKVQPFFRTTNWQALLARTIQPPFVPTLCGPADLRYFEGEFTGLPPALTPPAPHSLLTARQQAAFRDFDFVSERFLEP
# [16] = molecular target: Protein kinase C delta type (Homo sapiens) (UniProt Q05655); experiment: Inhibition of PKCdelta (unknown origin)at 1 uM
# [17] = molecular target: Mitogen-activated protein kinase 10 (Homo sapiens) (UniProt P53779); experiment: Inhibition of JNK3 (unknown origin) at 1 uM
# [18] = molecular target: Tyrosine-protein kinase TXK (Homo sapiens) (UniProt P42681); experiment: Inhibition of TXK (unknown origin) at 1 uM
# [19] = molecular target: Mitogen-activated protein kinase kinase kinase 9 (Homo sapiens) (UniProt P80192); experiment: Inhibition of MLK1 (unknown origin) at 1 uM
# [20] = molecular target: Macrophage colony-stimulating factor 1 receptor (Homo sapiens) (UniProt P07333); experiment: Inhibition of FMS (unknown origin) at 1 uM
# [21] = molecular target: Calcium/calmodulin-dependent protein kinase type II subunit beta (Homo sapiens) (UniProt Q13554); experiment: Inhibition of CAMK2B (unknown origin) at 1 uM
# [22] = molecular target: Aurora kinase B (Homo sapiens) (UniProt Q96GD4); experiment: Inhibition of Aurora B (unknown origin) at 1 uM
# [23] = molecular target: Mitogen-activated protein kinase kinase kinase kinase 3 (Homo sapiens) (UniProt Q8IVH8); experiment: Inhibition of GLK (unknown origin) at 1 uM
# [24] = molecular target: Cyclin-dependent kinase 5/CDK5 activator 1 (Homo sapiens) (UniProt Q00535+Q15078); experiment: Inhibition of CDK5/p25 (unknown origin) at 1 uM; format: protein-complex assay
# [25] = molecular target: Cyclin-dependent kinase 4/cyclin D1 (Homo sapiens) (UniProt P11802+P24385); experiment: Inhibition of CDK4/cyclin-D1 (unknown origin) at 1 uM; format: protein-complex assay
# [26] = molecular target: Serine/threonine-protein kinase SIK1 (Homo sapiens) (UniProt P57059); experiment: Inhibition of SIK1 (unknown origin) at 1 uM
# Sequence of Serine/threonine-protein kinase SIK1 (Homo sapiens) (P57059 whole entry): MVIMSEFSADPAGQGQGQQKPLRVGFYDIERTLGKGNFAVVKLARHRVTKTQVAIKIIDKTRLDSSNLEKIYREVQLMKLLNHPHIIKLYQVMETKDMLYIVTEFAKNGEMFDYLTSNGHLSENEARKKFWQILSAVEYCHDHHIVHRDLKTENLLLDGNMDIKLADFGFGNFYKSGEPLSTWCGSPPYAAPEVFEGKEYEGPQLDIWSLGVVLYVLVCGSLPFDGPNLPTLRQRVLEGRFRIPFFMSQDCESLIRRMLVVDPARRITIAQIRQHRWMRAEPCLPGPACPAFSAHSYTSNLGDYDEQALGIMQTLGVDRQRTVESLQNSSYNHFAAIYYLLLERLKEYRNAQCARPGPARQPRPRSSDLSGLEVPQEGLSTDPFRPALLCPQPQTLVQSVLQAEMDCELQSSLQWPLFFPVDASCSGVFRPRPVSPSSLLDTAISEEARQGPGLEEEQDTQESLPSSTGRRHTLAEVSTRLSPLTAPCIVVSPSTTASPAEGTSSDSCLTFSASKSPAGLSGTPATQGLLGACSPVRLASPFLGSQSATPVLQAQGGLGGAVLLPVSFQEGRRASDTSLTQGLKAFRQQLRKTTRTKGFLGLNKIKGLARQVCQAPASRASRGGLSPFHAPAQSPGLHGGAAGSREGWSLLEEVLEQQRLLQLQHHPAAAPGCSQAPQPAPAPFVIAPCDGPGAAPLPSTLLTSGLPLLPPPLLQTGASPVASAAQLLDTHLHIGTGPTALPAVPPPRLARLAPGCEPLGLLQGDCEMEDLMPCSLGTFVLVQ
# [27] = molecular target: RAC-beta serine/threonine-protein kinase (Homo sapiens) (UniProt P31751); experiment: Inhibition of AKT2 (unknown origin) at 1 uM
# Sequence of RAC-beta serine/threonine-protein kinase (Homo sapiens) (P31751 whole entry): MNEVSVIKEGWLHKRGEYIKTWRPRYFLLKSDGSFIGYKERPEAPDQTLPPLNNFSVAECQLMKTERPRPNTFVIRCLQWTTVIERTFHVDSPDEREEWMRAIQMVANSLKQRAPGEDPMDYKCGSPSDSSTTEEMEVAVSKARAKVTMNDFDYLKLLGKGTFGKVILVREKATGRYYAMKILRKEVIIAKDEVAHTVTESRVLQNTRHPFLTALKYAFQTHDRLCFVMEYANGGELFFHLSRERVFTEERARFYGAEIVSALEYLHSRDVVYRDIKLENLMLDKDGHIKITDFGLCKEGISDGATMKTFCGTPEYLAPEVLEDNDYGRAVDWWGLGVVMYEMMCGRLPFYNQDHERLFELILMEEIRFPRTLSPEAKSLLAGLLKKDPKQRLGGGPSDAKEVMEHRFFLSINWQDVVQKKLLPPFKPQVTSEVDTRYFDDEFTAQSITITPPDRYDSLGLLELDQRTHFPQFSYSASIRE
# [28] = molecular target: Ephrin type-B receptor 3 (Homo sapiens) (UniProt P54753); experiment: Inhibition of EPHB3 (unknown origin) at 1 uM
# [29] = molecular target: Bone morphogenetic protein receptor type-1A (Homo sapiens) (UniProt P36894); experiment: Inhibition of ALK3 (unknown origin) at 1 uM
# [30] = molecular target: Homeodomain-interacting protein kinase 4 (Homo sapiens) (UniProt Q8NE63); experiment: Inhibition of HIPK4 (unknown origin) at 1 uM
# [31] = molecular target: Casein kinase I isoform delta (Homo sapiens) (UniProt P48730); experiment: Inhibition of CK1D (unknown origin) at 1 uM
# [32] = molecular target: Calcium/calmodulin-dependent protein kinase type IV (Homo sapiens) (UniProt Q16566); experiment: Inhibition of CAMK4 (unknown origin) at 1 uM
# Sequence of Calcium/calmodulin-dependent protein kinase type IV (Homo sapiens) (Q16566 whole entry): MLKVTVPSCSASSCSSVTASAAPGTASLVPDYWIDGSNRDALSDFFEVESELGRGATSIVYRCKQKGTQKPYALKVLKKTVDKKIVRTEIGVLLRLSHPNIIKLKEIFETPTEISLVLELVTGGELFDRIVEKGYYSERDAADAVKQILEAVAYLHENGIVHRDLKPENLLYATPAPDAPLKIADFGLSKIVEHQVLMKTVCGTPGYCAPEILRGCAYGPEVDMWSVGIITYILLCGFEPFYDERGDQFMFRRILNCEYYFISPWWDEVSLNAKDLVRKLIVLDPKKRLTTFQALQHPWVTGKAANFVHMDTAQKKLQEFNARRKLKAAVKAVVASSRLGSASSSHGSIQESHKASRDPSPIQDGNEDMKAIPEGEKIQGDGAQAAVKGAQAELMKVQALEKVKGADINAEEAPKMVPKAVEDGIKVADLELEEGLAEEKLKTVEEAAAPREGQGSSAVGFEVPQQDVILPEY
# [33] = AUC (0 to infinity) in Sprague-Dawley rat at 50 mg/kg, po; format: ADME, organism-based; parameters: time infinity, dose 50 mg/kg, route po; details: in vivo
# [34] = molecular target: Serine/threonine-protein kinase 10 (Homo sapiens) (UniProt O94804); experiment: Inhibition of LOK (unknown origin) at 1 uM
# [35] = molecular target: Serine/threonine-protein kinase NIM1 (Homo sapiens) (UniProt Q8IY84); experiment: Inhibition of NIM1 (unknown origin) at 1 uM
# Sequence of Serine/threonine-protein kinase NIM1 (Homo sapiens) (Q8IY84 whole entry): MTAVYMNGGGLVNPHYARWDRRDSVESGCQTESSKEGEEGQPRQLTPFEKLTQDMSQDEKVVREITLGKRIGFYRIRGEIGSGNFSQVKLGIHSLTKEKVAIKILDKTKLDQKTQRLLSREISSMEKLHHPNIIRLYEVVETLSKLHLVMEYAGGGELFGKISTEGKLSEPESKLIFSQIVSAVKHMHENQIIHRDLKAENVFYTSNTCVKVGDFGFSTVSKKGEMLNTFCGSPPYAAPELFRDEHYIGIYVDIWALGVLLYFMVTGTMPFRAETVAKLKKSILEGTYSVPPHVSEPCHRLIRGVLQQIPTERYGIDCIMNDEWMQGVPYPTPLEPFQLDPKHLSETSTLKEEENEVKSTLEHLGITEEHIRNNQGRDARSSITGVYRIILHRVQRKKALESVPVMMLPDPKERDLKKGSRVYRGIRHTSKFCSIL
# [36] = molecular target: Protein kinase C gamma type (Homo sapiens) (UniProt P05129); experiment: Inhibition of PKCgamma (unknown origin)at 1 uM
# [37] = molecular target: Serine/threonine-protein kinase VRK2 (Homo sapiens) (UniProt Q86Y07); experiment: Inhibition of VRK2 (unknown origin) at 1 uM
# Sequence of Serine/threonine-protein kinase VRK2 (Homo sapiens) (Q86Y07 whole entry): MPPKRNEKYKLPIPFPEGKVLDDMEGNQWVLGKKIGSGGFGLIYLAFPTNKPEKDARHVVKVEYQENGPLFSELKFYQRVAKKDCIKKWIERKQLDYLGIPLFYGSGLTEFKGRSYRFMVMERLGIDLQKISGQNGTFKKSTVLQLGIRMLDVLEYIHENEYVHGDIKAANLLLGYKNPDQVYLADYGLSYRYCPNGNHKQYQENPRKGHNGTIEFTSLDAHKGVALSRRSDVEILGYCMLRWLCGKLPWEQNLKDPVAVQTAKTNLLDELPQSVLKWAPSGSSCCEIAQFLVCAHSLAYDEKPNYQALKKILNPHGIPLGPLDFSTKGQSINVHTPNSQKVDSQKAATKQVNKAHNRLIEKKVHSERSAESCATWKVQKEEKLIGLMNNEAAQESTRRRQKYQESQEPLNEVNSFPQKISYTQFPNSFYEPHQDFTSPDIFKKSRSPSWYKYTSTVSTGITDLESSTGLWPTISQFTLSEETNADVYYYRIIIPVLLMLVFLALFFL
# [38] = molecular target: Casein kinase II subunit alpha (Homo sapiens) (UniProt P68400); experiment: Inhibition of CK2A (unknown origin) at 1 uM
# [39] = Half life in mouse liver microsomes; format: ADME, Microsome
# [40] = molecular target: MAP kinase-activated protein kinase 5 (Homo sapiens) (UniProt Q8IW41); experiment: Inhibition of MAPKAPK5 (unknown origin) at 1 uM
# [41] = molecular target: Hepatocyte growth factor receptor (Homo sapiens) (UniProt P08581); experiment: Inhibition of c-MET (unknown origin) at 1 uM
# [42] = molecular target: Tyrosine-protein kinase Fgr (Homo sapiens) (UniProt P09769); experiment: Inhibition of FGR (unknown origin) at 1 uM
# [43] = molecular target: CDK9/cyclin T1 (Homo sapiens) (UniProt O60563+P50750); experiment: Inhibition of CDK9/cyclin-T1 (unknown origin) at 1 uM; format: protein-complex assay
# [44] = molecular target: Serine/threonine-protein kinase 24 (Homo sapiens) (UniProt Q9Y6E0); experiment: Inhibition of MST3 (unknown origin) at 1 uM
# HCT-116 = experiment: Cytotoxicity against human HCT-116 cells assessed as reduction in cell viability by CCK8 assay; format: functional, cell-based
# [45] = molecular target: Serine/threonine-protein kinase pim-1 (Homo sapiens) (UniProt P11309); experiment: Inhibition of PIM1 (unknown origin) at 1 uM
compound,measurement,setting,value
OCCOCc1cn(CCNc2nonc2/C(=N/O)Nc2ccc(F)c(Br)c2)nn1,inhibition,[1],inactive
same,inhibition,[2],inactive
same,inhibition,[3],inactive
same,inhibition,[4],inactive
same,inhibition,[5],inactive
same,inhibition,[6],inactive
same,inhibition,[7],inactive
same,inhibition,[8],inactive
same,inhibition,[9],inactive
same,inhibition,[10],inactive
same,inhibition,[11],inactive
same,inhibition,[12],inactive
same,k el,[13],0.000545 s⁻¹
same,inhibition,[14],inactive
same,inhibition,[15],inactive
same,inhibition,[16],inactive
same,inhibition,[17],inactive
same,inhibition,[18],inactive
same,inhibition,[19],inactive
same,inhibition,[20],inactive
same,inhibition,[21],inactive
same,inhibition,[22],inactive
same,inhibition,[23],inactive
same,inhibition,[24],inactive
same,inhibition,[25],inactive
same,inhibition,[26],inactive
same,inhibition,[27],inactive
same,inhibition,[28],inactive
same,inhibition,[29],inactive
same,inhibition,[30],inactive
same,inhibition,[31],inactive
same,inhibition,[32],inactive
same,AUC(0-inf),[33],3950 ng·h/mL
same,inhibition,[34],inactive
same,inhibition,[35],inactive
same,inhibition,[36],inactive
same,inhibition,[37],inactive
same,inhibition,[38],inactive
same,half-life,[39],43.2 min
same,inhibition,[40],inactive
same,inhibition,[41],inactive
same,inhibition,[42],inactive
same,inhibition,[43],inactive
same,inhibition,[44],inactive
same,IC50,HCT-116,56.1 µM
same,inhibition,[45],inactive
